{"source": "patent US20260137698A1", "about": "“CYCLIN-DEPENDENT KINASE 7 INHIBITORS” (JOINT STOCK COMPANY «BIOCAD», priority 2022, published 2026)", "key": {"[1]": {"assay": "Pharmacokinetics in mice plasma following intravenous administration", "assay_type": "in vivo, CD-1 mice", "settings": "male, CD-1, mouse; for half-life: read-out: T½ (converted); for Vd: read-out: Vss", "method": "(§1) Pharmacokinetic studies of the compounds were carried out on CD-1 mice, males, aged about 8 weeks, weighing 16-29 g. The animals were given a single oral (PO) administration (intragastrically) at a dose of 10 mg/kg in a formulation in the form of a 0.2% solution of hydroxypropyl methylcellulose (HPMC) in a 5% aqueous solution of glucose and a single IV-bolus administration (intravenously) at a dose of 1.0 mg/kg for 1277 and at a dose of 2.0 mg/kg for substances CDK7_1187, CDK7_1225, CDK7_1229 and CDK7_1276 in a formulation comprising 0.2% DMSO in 5% aqueous solution of glucose.\n(§2) For each substance, 21-30 animals were used for each dose of PO and IV administration. All mice were weighed and randomized before dosing.\n(§3) 3-5 animals were used for each time point. Each animal was sampled at one time point. At least 12 h before the start of the experiment, the animals were deprived of food while maintaining free access to water.\n(§4) Animals from the PO and IV groups were subjected to blood sampling before administering the substance and after 0.5, 2, 4, 8, 12 and 24 h.\n(§5) Blood was collected by cardiac puncture using the closed method. Blood was collected in a volume of 0.2 ml into polypropylene tubes comprising 20 μl of 5% EDTA. Blood plasma was separated by centrifugation at 10000 rpm for 10 minutes at 4±2° C. and transferred into clean labeled tubes.\n(§6) Test blood plasma samples of mice from the experimental groups were obtained in a volume of 50 μl. Afterwards, […] of a solution of internal standard (tolbutamide (Sigma, T0891)) prepared in acetonitrile, at a concentration of 50 ng/ml, pre-cooled in the refrigerator at 2-8° C., was added to the samples, stirred in a vortex mixer (G560E, Scientific Industries) for 10 seconds and incubated at 4° C. for 15 minutes for protein precipitation. Samples were then centrifuged (5417R centrifuge, Eppendorf) at 1500 g for 10 minutes while cooling to 4° C. 150 μl of the supernatant were transferred to a 96-well plate for HPLC-MS/MS analysis. Quantitative determination of test compounds in blood plasma was carried out by absolute calibration method. The calibration curve was generated by analyzing plasma samples with supplementations of known amounts of the standard of the compound being determined. The lower limit of the quantitative determination of test compounds in blood plasma was 1 ng/ml, the analytical range of the technique was 1 ng/ml to 2000 ng/ml. The technique was partially validated in terms of selectivity, accuracy, precision, linearity, matrix effects, stability.\n(§7) The Qtrap 5500 mass spectrometer (AB Sciex) in combination with the Agilent 1290 Infinity II HPLC liquid chromatograph (Agilent) and a cooling multisampler (Agilent 1290 Infinity II Multisampler G7167B) was used as an HPLC-MS/MS system. Chromatographic analysis was performed on a C18 reversed-phase HPLC column (YMC-Triart C18, 50*2 mm, 1.9 μm, YMC CO. Ltd). The mobile phase used was used a mixture of deionized water and acetonitrile supplemented with 0.1% formic acid in gradient mode, flow rate: 0.5 ml/min, column T=40° C., autosampler T=8° C., analysis time: 2.8 min. Mass spectrometric detection was performed in multiple reaction monitoring (MRM) mode. Precursor ions, fragment ions and collision energies for each substance were selected experimentally. Two Q1/Q3 transitions were used to record MRM chromatograms of the analyte and internal standard; one of transitions was used for quantitative calculations, the other one was used to confirm that the […] corresponds to a given substance. Based on the results of HPLC-MS/MS analysis of calibration samples using the Analyst 1.6.3 software, the calibration dependence of areas of chromatographic analyte peaks normalized to the signal of the internal standard on the concentration of the analyte was built.\n(§8) Pharmacokinetic analysis was performed by non-compartmental method using the Phoenix WinNonlin 6.3 software package. […]"}, "[2]": {"assay": "Pharmacokinetics in mice plasma following oral administration", "assay_type": "in vivo, CD-1 mice", "settings": "dose 10 mg/kg; for F: absolute bioavailability, mice; for AUC(0-t) / Cmax / Tmax / half-life: male, CD-1, mouse, mice plasma; for half-life: read-out: T½ (converted)", "method": "as §1, §2, §3, §4, §5, §6, §7, §8"}}, "note": "Read-outs that look alike come from different tables or passages of the source.", "data": [{"smiles": "CN1CCCc2c(-c3nc(N[C@H]4CCC(C)(C)NC4)ncc3C(F)(F)F)c[nH]c2C1=O", "note": "[CDK7_1187, 3-(2-{[(3S)-6,6-dimethylpiperidin-3-yl]amino}-5-(trifluoromethyl)py-rimidin-4-yl)-7-methyl-1H,4H,5H,6H,7H, 8H-pyrrolo[2,3-c]azepin-8-one]", "values": [{"measurement": "AUC(0-t)", "setting": "[1]; dose 2 mg/kg", "value": 314, "unit": "ng·h/mL"}, {"measurement": "clearance", "setting": "[1]; dose 2 mg/kg", "value": 103, "unit": "mL/min/kg"}, {"measurement": "half-life", "setting": "[1]; dose 2 mg/kg", "value": 1.7, "unit": "h"}, {"measurement": "Vd", "setting": "[1]; dose 2 mg/kg", "value": 10.1, "unit": "L/kg"}, {"measurement": "F", "setting": "[2]", "value": 72.7, "unit": "%"}, {"measurement": "AUC(0-t)", "setting": "[2]", "value": 1160, "unit": "ng·h/mL"}, {"measurement": "Cmax", "setting": "[2]", "value": 309, "unit": "ng/mL"}, {"measurement": "Tmax", "setting": "[2]", "value": 0.5, "unit": "h"}, {"measurement": "half-life", "setting": "[2]", "value": 1.7, "unit": "h"}]}, {"smiles": "CC1(C)CC[C@H](Nc2ncc(C(F)(F)F)c(-c3c[nH]c4c3CCCN(C3CC3)C4=O)n2)CN1", "note": "[CDK7_1225, 7-cyclopropyl-3-(2-{[(3S)-6,6-dimethylpiperidin-3-yl]amino}-5-(trifluoromethyl)py-rimidin-4-yl)-1H,4H,5H,6H,7H, 8H-pyrrolo[2,3-c]azepin-8-one]", "values": [{"measurement": "AUC(0-t)", "setting": "[1]; dose 2 mg/kg", "value": 691, "unit": "ng·h/mL"}, {"measurement": "clearance", "setting": "[1]; dose 2 mg/kg", "value": 48, "unit": "mL/min/kg"}, {"measurement": "half-life", "setting": "[1]; dose 2 mg/kg", "value": 1.8, "unit": "h"}, {"measurement": "Vd", "setting": "[1]; dose 2 mg/kg", "value": 6.3, "unit": "L/kg"}, {"measurement": "F", "setting": "[2]", "value": 102, "unit": "%"}, {"measurement": "AUC(0-t)", "setting": "[2]", "value": 3540, "unit": "ng·h/mL"}, {"measurement": "Cmax", "setting": "[2]", "value": 712, "unit": "ng/mL"}, {"measurement": "Tmax", "setting": "[2]", "value": 2, "unit": "h"}, {"measurement": "half-life", "setting": "[2]", "value": 1.9, "unit": "h"}]}, {"smiles": "CC(C)N1CCCc2c(-c3nc(N[C@H]4CCC(C)(C)NC4)ncc3C(F)(F)F)c[nH]c2C1=O", "note": "[CDK7_1229, 3-(2-{[(3S)-6,6-dimethylpiperidin-3-yl]amino}-5-(trifluoromethyl)py-rimidin-4-yl)-7-(propan-2-yl)-1H,4H,5H,6H,7H, 8H-pyrrolo[2,3-c]azepin-8-one]", "values": [{"measurement": "AUC(0-t)", "setting": "[1]; dose 2 mg/kg", "value": 1140, "unit": "ng·h/mL"}, {"measurement": "clearance", "setting": "[1]; dose 2 mg/kg", "value": 29, "unit": "mL/min/kg"}, {"measurement": "half-life", "setting": "[1]; dose 2 mg/kg", "value": 2, "unit": "h"}, {"measurement": "Vd", "setting": "[1]; dose 2 mg/kg", "value": 4.17, "unit": "L/kg"}, {"measurement": "F", "setting": "[2]", "value": 102, "unit": "%"}, {"measurement": "AUC(0-t)", "setting": "[2]", "value": 5790, "unit": "ng·h/mL"}, {"measurement": "Cmax", "setting": "[2]", "value": 1070, "unit": "ng/mL"}, {"measurement": "Tmax", "setting": "[2]", "value": 0.5, "unit": "h"}, {"measurement": "half-life", "setting": "[2]", "value": 2.5, "unit": "h"}]}, {"smiles": "O=C1c2[nH]cc(-c3nc(N[C@H]4CCC5(CC5)NC4)ncc3C(F)(F)F)c2CCCN1C1CC1", "note": "[CDK7_1276, 3-(2-{[(6S)-4-azaspiro[2.5]octan-6-yl]amino}-5-(trifluoromethyl)py-rimidin-4-yl)-7-cyclopropyl-1H,4H,5H,6H,7H, 8H-pyrrolo[2,3-c]azepin-8-one]", "values": [{"measurement": "AUC(0-t)", "setting": "[1]; dose 2 mg/kg", "value": 1380, "unit": "ng·h/mL"}, {"measurement": "clearance", "setting": "[1]; dose 2 mg/kg", "value": 21.5, "unit": "mL/min/kg"}, {"measurement": "half-life", "setting": "[1]; dose 2 mg/kg", "value": 4.15, "unit": "h"}, {"measurement": "Vd", "setting": "[1]; dose 2 mg/kg", "value": 6.52, "unit": "L/kg"}, {"measurement": "F", "setting": "[2]", "value": 116, "unit": "%"}, {"measurement": "AUC(0-t)", "setting": "[2]", "value": 7980, "unit": "ng·h/mL"}, {"measurement": "Cmax", "setting": "[2]", "value": 1510, "unit": "ng/mL"}, {"measurement": "Tmax", "setting": "[2]", "value": 0.5, "unit": "h"}, {"measurement": "half-life", "setting": "[2]", "value": 2, "unit": "h"}]}, {"smiles": "CC(C)N1CCCc2c(-c3nc(N[C@H]4CCC5(CC5)NC4)ncc3C(F)(F)F)c[nH]c2C1=O", "note": "[CDK7_1277, 3-(2-{[(6S)-4-azaspiro[2.5]octan-6-yl]amino}-5-(trifluoromethyl)py-rimidin-4-yl)-7-(propan-2-yl)-1H,4H,5H,6H,7H, 8H-pyrrolo[2,3-c]azepin-8-one]", "values": [{"measurement": "AUC(0-t)", "setting": "[1]; dose 1 mg/kg", "value": 363, "unit": "ng·h/mL"}, {"measurement": "clearance", "setting": "[1]; dose 1 mg/kg", "value": 45, "unit": "mL/min/kg"}, {"measurement": "half-life", "setting": "[1]; dose 1 mg/kg", "value": 2.1, "unit": "h"}, {"measurement": "Vd", "setting": "[1]; dose 1 mg/kg", "value": 6.89, "unit": "L/kg"}, {"measurement": "F", "setting": "[2]", "value": 85.8, "unit": "%"}, {"measurement": "AUC(0-t)", "setting": "[2]", "value": 3110, "unit": "ng·h/mL"}, {"measurement": "Cmax", "setting": "[2]", "value": 893, "unit": "ng/mL"}, {"measurement": "Tmax", "setting": "[2]", "value": 0.5, "unit": "h"}, {"measurement": "half-life", "setting": "[2]", "value": 3.8, "unit": "h"}]}]}
